This passage reports % of control and % of inhibition results from ChEMBL document CHEMBL5465560, “Selectivity Literature for EUbOPEN Chemogenomic Library” (2024).

The target in assay [1] is Serine/threonine-protein kinase N1 (Homo sapiens, UniProt Q16512). Nature of the assay: Selectivity interaction (Kinase panel (Z-LYTE Assay)) EUB0001632a PKN1. The note with it: at 10 µM.
Assay [2] has as its target Serine/threonine-protein kinase Nek7 (Homo sapiens) (UniProt Q8TDX7). The assay can be described thus: Selectivity interaction (ActivX KiNativ screen (ex vivo kinase selectivity in human PBMCs)) EUB0001619a NEK7. The format is cell-based. The following applies: PBMC, at 1 µM.
Assay [3] concerns the target T1, EKC/KEOPS complex subunit TP53RK (Homo sapiens) (UniProt Q96S44).
T1 sequence (whole entry): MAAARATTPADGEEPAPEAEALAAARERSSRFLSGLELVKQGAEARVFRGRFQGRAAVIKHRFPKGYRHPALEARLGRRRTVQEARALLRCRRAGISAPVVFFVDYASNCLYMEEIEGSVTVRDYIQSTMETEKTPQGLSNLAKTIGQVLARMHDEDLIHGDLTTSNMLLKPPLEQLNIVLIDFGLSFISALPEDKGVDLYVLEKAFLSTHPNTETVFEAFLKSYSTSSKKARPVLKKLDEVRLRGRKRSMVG
The assay can be described thus: Selectivity interaction (ActivX KiNativ screen (ex vivo kinase selectivity in human PBMCs)) EUB0001619a TP53RK. The note with it: PBMC, at 1 µM. The class given is cell-based.

Assay [4] concerns Fibroblast growth factor receptor 3 (Homo sapiens), P22607 [G697C]. The note with it: at 10 µM.
The target of assay [5] is T2, Dual specificity mitogen-activated protein kinase kinase 7 (Homo sapiens) (UniProt O14733).
T2 sequence (whole entry): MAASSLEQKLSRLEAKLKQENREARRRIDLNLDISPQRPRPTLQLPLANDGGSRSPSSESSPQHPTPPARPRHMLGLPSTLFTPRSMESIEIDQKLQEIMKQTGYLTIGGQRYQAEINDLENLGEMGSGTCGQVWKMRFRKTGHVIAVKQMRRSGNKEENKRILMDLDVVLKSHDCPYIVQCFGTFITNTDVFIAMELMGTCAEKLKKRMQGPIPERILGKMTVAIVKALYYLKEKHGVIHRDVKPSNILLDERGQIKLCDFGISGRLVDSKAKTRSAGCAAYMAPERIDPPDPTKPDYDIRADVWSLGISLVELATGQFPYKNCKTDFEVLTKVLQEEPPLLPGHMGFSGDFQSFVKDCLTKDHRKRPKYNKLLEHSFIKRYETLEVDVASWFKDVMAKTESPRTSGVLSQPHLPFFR
The assay can be described thus: Selectivity interaction (Kinase screening (Nanosyn)) EUB0000604a MAP2K7.

Assay [6] concerns the target Tyrosine-protein kinase Fyn (Homo sapiens) (UniProt P06241). Nature of the assay: Selectivity interaction (ActivX KiNativ screen (kinase selectivity in THP-1 cell lysates)) EUB0000639a FYN. The format is subcellular. The note with it: lysate, at 0.04 µM.
For assay [7], the system named is Epidermal growth factor receptor (Homo sapiens), P00533 [UNDEFINED MUTATION]. Nature of the assay: Selectivity interaction (ProQinase) EUB0000171b EGFR. The note with it: at 1 µM.
Assay [8] concerns the target Protein kinase C gamma type (Homo sapiens) (UniProt P05129). Nature of the assay: Selectivity interaction (ProQinase) EUB0000171b PRKCG.
The target in assay [9] is CDK4/Cyclin D3 (Homo sapiens) (UniProt P11802+P30281). The assay can be described thus: (§1) Selectivity interaction (Ambit KINOMEscan and KiNATiv profiling in Jurkat cells) EUB0000090b CDK4. The format is cell-based. The note with it: at 1 µM.
For assay [10], the target named is Cyclin-dependent kinase 4/cyclin D1 (Homo sapiens) (UniProt P11802+P24385). The assay is described as §1. The class given is cell-based. The following applies: at 1 µM.
Assay [11] addresses T3, Serine/threonine-protein kinase DCLK1 (Homo sapiens) (UniProt O15075).
T3 sequence (whole entry): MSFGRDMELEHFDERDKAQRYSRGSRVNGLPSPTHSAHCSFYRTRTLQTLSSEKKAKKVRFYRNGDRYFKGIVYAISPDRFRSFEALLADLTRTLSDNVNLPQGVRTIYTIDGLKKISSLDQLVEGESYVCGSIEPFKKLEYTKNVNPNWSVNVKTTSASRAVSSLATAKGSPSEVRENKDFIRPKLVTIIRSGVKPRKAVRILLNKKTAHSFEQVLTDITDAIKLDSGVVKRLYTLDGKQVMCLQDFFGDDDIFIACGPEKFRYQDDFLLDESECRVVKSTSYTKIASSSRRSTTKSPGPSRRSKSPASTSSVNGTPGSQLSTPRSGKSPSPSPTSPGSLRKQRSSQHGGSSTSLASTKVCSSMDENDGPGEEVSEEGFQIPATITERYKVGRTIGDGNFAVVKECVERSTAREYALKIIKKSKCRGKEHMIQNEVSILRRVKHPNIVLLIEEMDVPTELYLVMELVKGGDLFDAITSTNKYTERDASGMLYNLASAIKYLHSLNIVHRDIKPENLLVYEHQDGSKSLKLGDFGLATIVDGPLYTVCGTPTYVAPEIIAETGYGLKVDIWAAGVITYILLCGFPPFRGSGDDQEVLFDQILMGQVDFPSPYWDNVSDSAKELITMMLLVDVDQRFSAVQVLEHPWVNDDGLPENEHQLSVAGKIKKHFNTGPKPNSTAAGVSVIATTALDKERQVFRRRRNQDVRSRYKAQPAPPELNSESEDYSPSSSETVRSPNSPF
Nature of the assay: Selectivity interaction (Ambit KINOMEscan and KiNATiv profiling in Jurkat cells) EUB0000090b DCLK1. The format is cell-based. The following applies: at 1 µM.

The target of assay [12] is Mitogen-activated protein kinase kinase kinase 9 (Homo sapiens) (UniProt P80192). Nature of the assay: Selectivity interaction (Ambit KINOMEscan and KiNATiv profiling in Jurkat cells) EUB0000090b MAP3K9. The class given is cell-based. The note with it: at 1 µM.
In assay [13] the target is Receptor-type tyrosine-protein kinase FLT3 (Homo sapiens) (UniProt P36888). The assay can be described thus: Selectivity interaction (SelectScreen Kinase Profiling (Thermo Fisher Scientific)) EUB0001558a FLT3. The following applies: at 1 µM.
For assay [14], the target named is T4, Mitogen-activated protein kinase 15 (Homo sapiens) (UniProt Q8TD08).
T4 sequence (whole entry): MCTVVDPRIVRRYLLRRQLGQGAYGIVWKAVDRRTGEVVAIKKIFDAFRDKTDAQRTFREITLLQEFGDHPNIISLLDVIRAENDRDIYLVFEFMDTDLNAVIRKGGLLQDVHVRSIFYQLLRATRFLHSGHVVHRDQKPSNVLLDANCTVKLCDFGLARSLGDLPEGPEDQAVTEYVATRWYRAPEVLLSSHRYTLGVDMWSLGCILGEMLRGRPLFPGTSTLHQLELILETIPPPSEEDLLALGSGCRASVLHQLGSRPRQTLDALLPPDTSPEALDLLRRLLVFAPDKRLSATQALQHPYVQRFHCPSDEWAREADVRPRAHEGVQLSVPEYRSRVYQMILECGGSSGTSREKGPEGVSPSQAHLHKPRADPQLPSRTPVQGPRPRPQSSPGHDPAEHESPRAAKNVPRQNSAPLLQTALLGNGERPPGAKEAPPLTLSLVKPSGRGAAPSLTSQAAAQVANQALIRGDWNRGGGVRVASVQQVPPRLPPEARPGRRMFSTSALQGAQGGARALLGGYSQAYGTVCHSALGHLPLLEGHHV
Nature of the assay: Selectivity interaction (KinomeScan (DiscoverX)) EUB0001079a MAPK15. The following applies: at 1 µM.

Fibroblast growth factor receptor 3 (Homo sapiens), P22607 [G697C], sequence (P22607 whole entry G697C): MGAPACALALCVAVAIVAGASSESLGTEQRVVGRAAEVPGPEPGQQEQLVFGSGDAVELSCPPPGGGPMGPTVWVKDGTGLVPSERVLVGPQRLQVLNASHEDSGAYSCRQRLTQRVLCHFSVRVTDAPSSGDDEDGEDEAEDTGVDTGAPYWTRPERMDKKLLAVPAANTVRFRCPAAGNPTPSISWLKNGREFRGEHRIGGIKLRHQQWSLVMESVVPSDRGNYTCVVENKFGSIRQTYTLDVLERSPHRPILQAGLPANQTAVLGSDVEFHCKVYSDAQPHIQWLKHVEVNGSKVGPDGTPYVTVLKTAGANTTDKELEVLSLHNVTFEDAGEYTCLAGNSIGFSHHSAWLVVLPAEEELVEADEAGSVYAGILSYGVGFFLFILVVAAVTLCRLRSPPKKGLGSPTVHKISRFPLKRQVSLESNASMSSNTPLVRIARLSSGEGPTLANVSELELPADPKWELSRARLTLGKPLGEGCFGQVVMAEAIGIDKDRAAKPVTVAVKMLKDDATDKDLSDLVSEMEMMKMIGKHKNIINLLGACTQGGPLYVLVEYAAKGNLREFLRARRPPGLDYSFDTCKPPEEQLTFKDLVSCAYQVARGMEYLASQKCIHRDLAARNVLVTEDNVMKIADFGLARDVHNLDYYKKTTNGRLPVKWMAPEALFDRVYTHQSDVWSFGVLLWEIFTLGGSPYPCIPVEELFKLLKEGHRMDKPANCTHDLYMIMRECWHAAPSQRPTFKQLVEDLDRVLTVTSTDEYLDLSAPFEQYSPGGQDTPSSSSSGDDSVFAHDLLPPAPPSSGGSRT
Receptor-type tyrosine-protein kinase FLT3 (Homo sapiens), sequence (P36888 whole entry): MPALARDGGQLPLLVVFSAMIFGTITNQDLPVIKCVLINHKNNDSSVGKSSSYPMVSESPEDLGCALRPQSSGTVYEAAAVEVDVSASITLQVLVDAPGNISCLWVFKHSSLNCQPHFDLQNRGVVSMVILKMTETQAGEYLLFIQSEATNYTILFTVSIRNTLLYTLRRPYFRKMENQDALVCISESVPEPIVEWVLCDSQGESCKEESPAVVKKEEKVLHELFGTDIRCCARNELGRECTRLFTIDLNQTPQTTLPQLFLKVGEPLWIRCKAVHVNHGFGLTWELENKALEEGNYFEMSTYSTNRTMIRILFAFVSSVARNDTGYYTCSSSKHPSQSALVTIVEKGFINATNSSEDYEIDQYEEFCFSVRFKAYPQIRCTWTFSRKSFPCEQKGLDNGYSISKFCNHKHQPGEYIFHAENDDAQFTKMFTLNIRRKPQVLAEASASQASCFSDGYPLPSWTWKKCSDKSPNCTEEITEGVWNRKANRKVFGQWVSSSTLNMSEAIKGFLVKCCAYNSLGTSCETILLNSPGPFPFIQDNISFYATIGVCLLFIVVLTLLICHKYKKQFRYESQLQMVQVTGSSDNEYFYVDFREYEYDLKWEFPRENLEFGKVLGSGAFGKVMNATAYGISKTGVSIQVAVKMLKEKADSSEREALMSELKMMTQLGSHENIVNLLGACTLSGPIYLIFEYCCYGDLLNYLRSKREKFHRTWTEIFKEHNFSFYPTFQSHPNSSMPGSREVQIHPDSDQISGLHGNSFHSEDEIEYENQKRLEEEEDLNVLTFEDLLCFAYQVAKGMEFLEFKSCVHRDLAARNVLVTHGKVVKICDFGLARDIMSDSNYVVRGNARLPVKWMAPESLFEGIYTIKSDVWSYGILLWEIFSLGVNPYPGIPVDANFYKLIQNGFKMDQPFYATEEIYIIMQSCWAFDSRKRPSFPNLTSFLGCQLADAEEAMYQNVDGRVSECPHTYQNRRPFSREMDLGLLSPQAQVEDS
Serine/threonine-protein kinase N1, sequence (Q16512 2-942 limits assumed): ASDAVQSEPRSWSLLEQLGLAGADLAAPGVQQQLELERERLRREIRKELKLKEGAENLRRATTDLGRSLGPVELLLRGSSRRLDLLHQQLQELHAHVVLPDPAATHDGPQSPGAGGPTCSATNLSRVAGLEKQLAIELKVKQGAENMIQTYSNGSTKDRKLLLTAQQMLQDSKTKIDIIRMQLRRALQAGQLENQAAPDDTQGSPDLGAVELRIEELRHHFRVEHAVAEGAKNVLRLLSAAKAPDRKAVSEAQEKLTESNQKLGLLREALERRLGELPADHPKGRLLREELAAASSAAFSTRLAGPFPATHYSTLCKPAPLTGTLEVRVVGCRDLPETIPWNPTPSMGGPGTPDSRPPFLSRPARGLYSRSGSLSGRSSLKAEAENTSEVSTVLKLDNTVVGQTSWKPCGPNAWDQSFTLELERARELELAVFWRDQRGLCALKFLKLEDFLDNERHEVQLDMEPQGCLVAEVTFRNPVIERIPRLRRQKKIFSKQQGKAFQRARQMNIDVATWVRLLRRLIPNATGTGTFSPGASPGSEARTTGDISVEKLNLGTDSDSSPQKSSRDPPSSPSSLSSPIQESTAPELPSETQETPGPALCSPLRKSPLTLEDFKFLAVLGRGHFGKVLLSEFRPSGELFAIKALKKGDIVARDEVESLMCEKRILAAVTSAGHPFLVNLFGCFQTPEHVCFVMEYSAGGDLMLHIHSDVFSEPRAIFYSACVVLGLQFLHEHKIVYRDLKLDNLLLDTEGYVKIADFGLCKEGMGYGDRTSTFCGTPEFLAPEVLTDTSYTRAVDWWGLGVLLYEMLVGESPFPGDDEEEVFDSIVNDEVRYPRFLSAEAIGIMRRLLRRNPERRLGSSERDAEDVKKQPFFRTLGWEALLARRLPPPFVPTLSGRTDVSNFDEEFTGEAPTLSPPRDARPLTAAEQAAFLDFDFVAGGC
Epidermal growth factor receptor (Homo sapiens), P00533 [UNDEFINED MUTATION], sequence (P00533 whole entry, looked up, change not shown): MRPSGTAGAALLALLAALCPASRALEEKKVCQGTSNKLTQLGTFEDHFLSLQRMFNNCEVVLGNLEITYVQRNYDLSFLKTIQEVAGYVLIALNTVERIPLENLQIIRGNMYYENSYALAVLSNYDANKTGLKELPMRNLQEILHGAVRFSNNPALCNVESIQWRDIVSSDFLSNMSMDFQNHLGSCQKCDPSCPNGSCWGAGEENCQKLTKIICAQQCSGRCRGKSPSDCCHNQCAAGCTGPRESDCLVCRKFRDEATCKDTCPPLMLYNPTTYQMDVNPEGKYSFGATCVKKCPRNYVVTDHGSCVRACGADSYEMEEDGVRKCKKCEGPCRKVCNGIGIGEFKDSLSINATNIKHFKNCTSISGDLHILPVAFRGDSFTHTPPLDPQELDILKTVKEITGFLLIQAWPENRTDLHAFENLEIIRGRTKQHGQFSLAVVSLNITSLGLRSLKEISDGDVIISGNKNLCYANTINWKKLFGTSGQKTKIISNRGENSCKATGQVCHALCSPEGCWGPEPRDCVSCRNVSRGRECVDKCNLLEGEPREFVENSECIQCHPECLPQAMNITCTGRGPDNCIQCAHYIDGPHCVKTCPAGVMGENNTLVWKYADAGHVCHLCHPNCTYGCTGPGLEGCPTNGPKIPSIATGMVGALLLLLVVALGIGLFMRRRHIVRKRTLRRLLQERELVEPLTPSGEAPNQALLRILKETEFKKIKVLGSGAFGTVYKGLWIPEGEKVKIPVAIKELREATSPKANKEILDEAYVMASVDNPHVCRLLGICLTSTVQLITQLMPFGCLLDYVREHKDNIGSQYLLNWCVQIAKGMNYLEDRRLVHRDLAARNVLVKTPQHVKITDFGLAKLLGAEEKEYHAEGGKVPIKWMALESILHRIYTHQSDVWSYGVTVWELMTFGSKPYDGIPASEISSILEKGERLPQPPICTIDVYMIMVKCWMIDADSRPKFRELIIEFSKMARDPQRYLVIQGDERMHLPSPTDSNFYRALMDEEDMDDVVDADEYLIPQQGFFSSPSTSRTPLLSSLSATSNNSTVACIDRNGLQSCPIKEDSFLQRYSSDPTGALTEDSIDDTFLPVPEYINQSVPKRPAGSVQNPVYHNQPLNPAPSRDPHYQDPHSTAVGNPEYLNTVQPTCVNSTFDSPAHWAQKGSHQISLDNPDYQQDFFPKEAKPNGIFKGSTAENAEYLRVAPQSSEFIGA
Serine/threonine-protein kinase Nek7 (Homo sapiens), sequence (Q8TDX7 whole entry, looked up): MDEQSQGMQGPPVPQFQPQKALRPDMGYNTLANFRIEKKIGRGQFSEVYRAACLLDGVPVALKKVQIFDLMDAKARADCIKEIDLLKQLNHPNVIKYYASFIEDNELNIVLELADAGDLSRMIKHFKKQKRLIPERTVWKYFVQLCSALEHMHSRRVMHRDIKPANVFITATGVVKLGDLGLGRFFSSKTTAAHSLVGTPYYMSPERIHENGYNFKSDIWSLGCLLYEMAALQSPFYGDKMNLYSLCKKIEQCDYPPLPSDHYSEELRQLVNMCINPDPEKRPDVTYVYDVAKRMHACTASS

`Cn1cc(-n2cnc3c(NCc4nc5cc(Cl)c(Cl)cc5[nH]4)nc(N4CCOCC4)nc32)cn1`: the % of control in [1] is -4.72%.

`N#Cc1cccc(-c2c[nH]c3ncnc(N4CCOCC4)c23)c1`: the % of inhibition in assay [2] is 7%; in assay [3], -4%.

Turning to `Cc1cc([C@@H](C)Nc2ccccc2C(=O)O)c2nc(N3CCOCC3)cc(=O)n2c1` [AZD-6482], the % of control in assay [4] was determined as 100%.

On to `Cc1cnc(Nc2ccc(F)cc2Cl)nc1-c1c[nH]c(C(=O)N[C@H](CO)c2cccc(Cl)c2)c1`, for which the % of inhibition in assay [5] amounted to 6%.

Turning to `CC[C@@H]1[C@H](F)C(=O)N[C@@H]1COc1nccc2cc(C(N)=O)c(OC)cc12` [ZIMLOVISERTIB], the % of inhibition in [6] was -0.2%.

`C=CC(=O)Nc1cccc(C(=O)Nc2ccc(Nc3cc(-c4[nH]c(SC)nc4C)ccn3)cc2)c1`: the % of control in [7] came to 85%; in assay [8] (at 1 µM) it was 88%; in [8] (at 5 µM), 100%.

For the compound `CN(C)C/C=C/C(=O)Nc1ccc(C(=O)N2CCCC(Nc3ncc(Cl)c(-c4c[nH]c5ccccc45)n3)C2)cc1` (stereo not given), the % of control turned out to be 94% in assay [9], 59% in assay [10], 58% in [11] and 100% in assay [12].

Regarding `CC(C)(O)[C@H](F)CN1Cc2cc(NC(=O)c3cnn4cccnc34)c(N3CCOCC3)cc2C1=O`, the % of inhibition in assay [13] turned out to be 90.8%.

Turning to `Nc1cnc(N2CCc3cc(S(=O)(=O)Nc4c(F)cc(Cl)cc4F)cc(N4CCCC4=O)c32)nc1` [TP-020n], in [14], the % of control was 84%.
